Measurements from patent US8729031B2, “Compounds” (priority 2009, dated 2014).
Converted amounts (≈) assume the structure as drawn. Read-outs that look alike come from different tables or passages of the source.

How the values were obtained:
Assay type in all cases: cell-based
[1] = tested on: Streptococcus pneumoniae; test: microbe, parasite or virus in culture; conditions: Streptococcus pneumoniae, read-out: MIC
Procedure: (§1) Susceptibility testing with the exception of Streptococcus pneumoniae was performed by two-fold serial dilutions in Mueller Hinton Broth supplemented with 50 μg/mL Ca^2+. Susceptibility testing of S. pneumoniae was performed by two-fold serial dilutions in Brain-Heart-Infusion Broth supplemented with 50 μg/mL Ca^2+.

[2] = tested on: S. aureus R33 (MRSA); conditions: for MIC against Stapholococcus aureus strain R33: strain R33, text b20
Procedure: as §1

[3] = tested on: S. aureus SH1000; conditions: for MIC against Stapholococcus aureus strain SH1000: strain SH1000, text b20
Procedure: as §1

`CC[C@H]1OC(=O)[C@H](C)[C@@H](O[C@H]2C[C@@](C)(OC)[C@@H](O)[C@H](C)O2)[C@H](C)[C@@H](O[C@@H]2O[C@H](C)C[C@H](N(C)C)[C@H]2O)[C@](C)(O)C[C@@H](C)C(=O)[C@H](C)[C@@H](O)[C@]1(C)O` [Erythromycin, reference compound] showed an MIC ([1]; isolate QB37301, penicillin Resistant) of over 32 µg/mL, an MIC ([1]; isolate QB37302, penicillin Resistant) of over 32 µg/mL and an MIC ([1]; isolate QB37303, penicillin Intermediate) of at most 0.015 µg/mL. It also gave an MIC ([1]; isolate QB37304, penicillin Susceptible) of 8 µg/mL (≈ 10.9 µM), an MIC ([1]; isolate QB37306, penicillin Susceptible) of at most 0.015 µg/mL and an MIC ([1]; isolate QB37307, penicillin Intermediate) of at most 0.015 µg/mL. It also gave an MIC ([1]; isolate QB37308, penicillin Susceptible) of at most 0.015 µg/mL, an MIC ([1]; isolate QB37309, penicillin Resistant) of 2 µg/mL (≈ 2.73 µM) and an MIC ([1]; isolate QB37310, penicillin Resistant) of over 32 µg/mL. It also gave an MIC ([1]; isolate QB37311, penicillin Resistant) of over 32 µg/mL, an MIC ([1]; isolate QB37312, penicillin Intermediate) of over 32 µg/mL and an MIC ([1]; isolate QB37313, penicillin Susceptible) of over 32 µg/mL. For the same compound, the MIC ([1]; isolate QB37314, penicillin Resistant) was over 32 µg/mL, the MIC ([1]; isolate QB37315, penicillin Susceptible) was at most 0.015 µg/mL and the MIC ([1]; isolate QB37316, penicillin Susceptible) was at most 0.015 µg/mL. For the same compound, the MIC ([1]; isolate QB37317, penicillin Susceptible) was at most 0.015 µg/mL, the MIC ([1]; isolate QB37318, penicillin Resistant) was 4 µg/mL (≈ 5.45 µM) and the MIC ([1]; isolate QB37319, penicillin Resistant) was over 32 µg/mL.
For `CC[C@H](C)[C@@H]1NC(=O)[C@@H]2NC(=O)[C@H](CC(C)C)NC(=O)[C@H](NC(=O)[C@@H]3CSC[C@@H](N)C(=O)N[C@@H](CO)C(=O)NCC(=O)N[C@@H](Cc4c[nH]c5ccccc45)C(=O)N[C@@H](C(C)C)C(=O)N3)[C@H](C)SC[C@H](NC(=O)[C@H](CCC(=O)O)NC1=O)C(=O)NCC(=O)N[C@H]1C(=O)N[C@@H](CC(C)C)C(=O)N[C@@H](C(C)C)C(=O)N[C@@H](CS[C@H]2C)C(=O)N[C@@H](C)C(=O)N[C@H](C(=O)N2CCN(Cc3ccc(Br)cc3F)CC2)CS[C@H]1C` [Example 7, Deoxyactagardine B [4-(2′-fluoro-4′-bromobenzyl)piperazine]monocarboxamide], the “MIC in μg/mL against strain S. aureus R33 (MRSA)” value (shortened to “MIC in μg/mL … (MRSA)”) [2] was 8 µg/mL (≈ 3.76 µM) and the “MIC in μg/mL against strain S. aureus SH1000” value [3] was 8 µg/mL (≈ 3.76 µM).
With `CC[C@H](C)[C@@H]1NC(=O)[C@@H]2NC(=O)[C@H](CC(C)C)NC(=O)[C@H](NC(=O)[C@@H]3CSC[C@@H](N)C(=O)N[C@@H](CO)C(=O)NCC(=O)N[C@@H](Cc4c[nH]c5ccccc45)C(=O)N[C@@H](C(C)C)C(=O)N3)[C@H](C)SC[C@H](NC(=O)[C@H](CCC(=O)O)NC1=O)C(=O)NCC(=O)N[C@H]1C(=O)N[C@@H](CC(C)C)C(=O)N[C@@H](C(C)C)C(=O)N[C@@H](CS[C@H]2C)C(=O)N[C@@H](C)C(=O)N[C@H](C(=O)NCc2ccc(Br)cc2)CS[C@H]1C` [Example 9, Deoxyactagardine B [4-bromobenzylamine]monocarboxamide] the “MIC in μg/mL against strain S. aureus SH1000” value [3] was 8 µg/mL (≈ 3.92 µM).
For `CC[C@H](C)[C@@H]1NC(=O)[C@@H]2NC(=O)[C@H](CC(C)C)NC(=O)[C@H](NC(=O)[C@@H]3CSC[C@@H](N)C(=O)N[C@@H](CO)C(=O)NCC(=O)N[C@@H](Cc4c[nH]c5ccccc45)C(=O)N[C@@H](C(C)C)C(=O)N3)[C@H](C)SC[C@H](NC(=O)[C@H](CCC(=O)O)NC1=O)C(=O)NCC(=O)N[C@H]1C(=O)N[C@@H](CC(C)C)C(=O)N[C@@H](C(C)C)C(=O)N[C@@H](CS[C@H]2C)C(=O)N[C@@H](C)C(=O)N[C@H](C(=O)N2CCN(c3ccc(Cl)c(Cl)c3)CC2)CS[C@H]1C` [Example 10, Deoxyactagardine B [4-(3′,4′-dichlorophenyl)piperazine]monocarboxamide], the “MIC in μg/mL against strain S. aureus SH1000” value [3] was 8 µg/mL (≈ 3.83 µM).
In the case of `CC[C@H](C)[C@@H]1NC(=O)[C@@H]2NC(=O)[C@H](CC(C)C)NC(=O)[C@H](NC(=O)[C@@H]3CSC[C@@H](N)C(=O)N[C@@H](CO)C(=O)NCC(=O)N[C@@H](Cc4c[nH]c5ccccc45)C(=O)N[C@@H](C(C)C)C(=O)N3)[C@H](C)SC[C@H](NC(=O)[C@H](CCC(=O)O)NC1=O)C(=O)NCC(=O)N[C@H]1C(=O)N[C@@H](CC(C)C)C(=O)N[C@@H](C(C)C)C(=O)N[C@@H](CS[C@H]2C)C(=O)N[C@@H](C)C(=O)N[C@H](C(=O)NCc2ccc(F)cc2F)CS[C@H]1C` [Example 15, Deoxyactagardine B (2,4-difluorobenzylamine)monocarboxamide], the “MIC in μg/mL … (MRSA)” value [2] is reported as 8 µg/mL (≈ 4 µM) and the “MIC in μg/mL against strain S. aureus SH1000” value [3] is reported as 8 µg/mL (≈ 4 µM).
With `CC[C@H](C)[C@@H]1NC(=O)[C@@H]2NC(=O)[C@H](CC(C)C)NC(=O)[C@H](NC(=O)[C@@H]3CSC[C@@H](N)C(=O)N[C@@H](CO)C(=O)NCC(=O)N[C@@H](Cc4c[nH]c5ccccc45)C(=O)N[C@@H](C(C)C)C(=O)N3)[C@H](C)SC[C@H](NC(=O)[C@H](CCC(=O)O)NC1=O)C(=O)NCC(=O)N[C@H]1C(=O)N[C@@H](CC(C)C)C(=O)N[C@@H](C(C)C)C(=O)N[C@@H](CS[C@H]2C)C(=O)N[C@@H](C)C(=O)N[C@H](C(=O)NCCCNCCCNCc2cc(Cl)cc(Cl)c2)CS[C@H]1C` [Example 20, Deoxyactagardine B [3-(3′-(3″,5″-dichlorobenzylamino)propylamino)propylamine]monocarboxamide] the “MIC in μg/mL … (MRSA)” value [2] was 8 µg/mL (≈ 3.73 µM) and the “MIC in μg/mL against strain S. aureus SH1000” value [3] was 8 µg/mL (≈ 3.73 µM).
In the case of `CC[C@H](C)[C@@H]1NC(=O)[C@@H]2NC(=O)[C@H](CC(C)C)NC(=O)[C@H](NC(=O)[C@@H]3CSC[C@@H](N)C(=O)N[C@@H](CO)C(=O)NCC(=O)N[C@@H](Cc4c[nH]c5ccccc45)C(=O)N[C@@H](C(C)C)C(=O)N3)[C@H](C)SC[C@H](NC(=O)[C@H](CCC(=O)O)NC1=O)C(=O)NCC(=O)N[C@H]1C(=O)N[C@@H](CC(C)C)C(=O)N[C@@H](C(C)C)C(=O)N[C@@H](CS[C@H]2C)C(=O)N[C@@H](C)C(=O)N[C@H](C(=O)NCCCCCCNS(=O)(=O)c2c(Cl)cc(Cl)cc2Cl)CS[C@H]1C` [Example 27, Deoxyactagardine B [6-(2′,4′,6′-trichlorobenzenesulfonamido)hexylamine]monocarboxamide], the “MIC in μg/mL … (MRSA)” value [2] is reported as 8 µg/mL (≈ 3.61 µM) and the “MIC in μg/mL against strain S. aureus SH1000” value [3] is reported as 8 µg/mL (≈ 3.61 µM).
`CC[C@H](C)[C@@H]1NC(=O)[C@@H]2NC(=O)[C@H](CC(C)C)NC(=O)[C@H](NC(=O)[C@@H]3CSC[C@@H](N)C(=O)N[C@@H](CO)C(=O)NCC(=O)N[C@@H](Cc4c[nH]c5ccccc45)C(=O)N[C@@H](C(C)C)C(=O)N3)[C@H](C)SC[C@H](NC(=O)[C@H](CCC(=O)O)NC1=O)C(=O)NCC(=O)N[C@H]1C(=O)N[C@@H](CC(C)C)C(=O)N[C@@H](C(C)C)C(=O)N[C@@H](CS[C@H]2C)C(=O)N[C@@H](C)C(=O)N[C@H](C(=O)NCCCCCCNCc2cc(Cl)cc(Cl)c2)CS[C@H]1C` [Example 30, Deoxyactagardine B [6-(3′,5′-dichlorobenzylamino)-hexylamine]monocarboxamide] was tested, and the “MIC in μg/mL … (MRSA)” value [2] was 8 µg/mL (≈ 3.75 µM) and the “MIC in μg/mL against strain S. aureus SH1000” value [3] was 4 µg/mL (≈ 1.88 µM).
In the case of “Actagardine (3,5-dichlorobenzylamine)monocarboxamide [Example 2]”, the “MIC in μg/mL … (MRSA)” value [2] is reported as “≦4 μg/mL” and the “MIC in μg/mL against strain S. aureus SH1000” value [3] is reported as “≦4 μg/mL”.
In the case of “Deoxyactagardine B 19-[4-(4′-chlorophenyl)piperazine]monocarboxamide [Example 4]”, the “MIC in μg/mL … (MRSA)” value [2] is reported as “≦4 μg/mL” and the “MIC in μg/mL against strain S. aureus SH1000” value [3] is reported as “≦4 μg/mL”.
“Deoxyactagardine B (2,5-dichlorobenzylamine)monocarboxamide [Example 21]” was tested, and the “MIC in μg/mL … (MRSA)” value [2] was “≦4 μg/mL” and the “MIC in μg/mL against strain S. aureus SH1000” value [3] was “≦4 μg/mL”.
For “Deoxyactagardine B (2-chlorobenzylamine)monocarboxamide [Example 23]”, the “MIC in μg/mL … (MRSA)” value [2] was “≦4 μg/mL” and the “MIC in μg/mL against strain S. aureus SH1000” value [3] was “≦4 μg/mL”.
“Deoxyactagardine B (3,4-dichlorobenzylamine)monocarboxamide [Example 22]” was tested, and the “MIC in μg/mL … (MRSA)” value [2] was “≦4 μg/mL” and the “MIC in μg/mL against strain S. aureus SH1000” value [3] was “≦4 μg/mL”.
“Deoxyactagardine B (3-chlorobenzylamine)monocarboxamide [Example 24]” was tested, and the “MIC in μg/mL … (MRSA)” value [2] was “≦4 μg/mL” and the “MIC in μg/mL against strain S. aureus SH1000” value [3] was “≦4 μg/mL”.
“Deoxyactagardine B (4-chlorobenzylamine)monocarboxamide [Example 25]” was tested, and the “MIC in μg/mL … (MRSA)” value [2] was “≦4 μg/mL” and the “MIC in μg/mL against strain S. aureus SH1000” value [3] was “≦4 μg/mL”.
“Deoxyactagardine B [3-(2′-aminomethyl-4′-(2″,4″-dichlorophenyl)-furanyl)propylamine]monocarboxamide [Example 32]” was tested, and the “MIC in μg/mL … (MRSA)” value [2] was “≦4 μg/mL” and the “MIC in μg/mL against strain S. aureus SH1000” value [3] was “≦4 μg/mL”.
With “Deoxyactagardine B [3-(2′-aminomethyl-4′-(2″-nitro-4″-chlorophenyl)-furanyl)propylamine]monocarboxamide [Example 33]” the “MIC in μg/mL … (MRSA)” value [2] was “≦4 μg/mL” and the “MIC in μg/mL against strain S. aureus SH1000” value [3] was “≦4 μg/mL”.
“deoxyactagardine B N-[1-(1-methyl-4-piperidinyl)piperazine]monocarboxamide [reference compound]” was tested, and the “MIC against Stapholococcus aureus strain R33” value [2] was “approximately 64 μL/mL” and the “MIC against Stapholococcus aureus strain SH1000” value [3] was “approximately 64 μL/mL”.
In the case of “deoxyactagardine B N-[1-(3-dimethylamino propyl)piperazine]monocarboxamide [reference compound]”, the “MIC against Stapholococcus aureus strain R33” value [2] is reported as “approximately 64 μL/mL” and the “MIC against Stapholococcus aureus strain SH1000” value [3] is reported as “approximately 64 μL/mL”.
